Reference: patent US5459064A, “Protease” (Shionogi & Co., Ltd., priority 1990, dated 1995)
Residues, ends and D or L forms follow the SMILES beside them. *: point of attachment. Cbz = O=C(OCc1ccccc1)*; CH2Cl = ClC*

Assays:
[1] = molecular target: BLase (the present enzyme) (Bacillus licheniformis, UniProt P80057); test: Effect of inhibitors on the present enzyme; type: biochemical, Bacillus licheniformis ATCC No. 14580
oxidized insulin B chain = test: Cleavage of oxidized insulin B chain, HPLC peptide mapping; type: biochemical; conditions: 50 mM ammonium bicarbonate pH 7.8, enzyme/substrate 1/100 (W/W)

BLase (the present enzyme), sequence (P80057 95-316): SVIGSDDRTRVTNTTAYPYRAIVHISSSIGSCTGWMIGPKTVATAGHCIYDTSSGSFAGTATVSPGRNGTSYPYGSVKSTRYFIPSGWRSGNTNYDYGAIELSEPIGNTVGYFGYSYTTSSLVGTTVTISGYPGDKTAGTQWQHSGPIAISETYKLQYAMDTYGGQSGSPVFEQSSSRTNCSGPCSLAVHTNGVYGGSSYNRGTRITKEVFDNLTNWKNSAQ

Molecule | Inhibition of the present enzyme [1] | Inhibitory effect after addition of metal ions [1] | Maximum inhibition ratio [1] | Action on oxidized insulin B chain (peptide mapping) (oxidized insulin B chain)
O=C(O)CN(CCN(CC(=O)O)CC(=O)O)CC(=O)O [EDTA] | partially inhibited | completely nullified | approximately 72% | –
CC(C)C[C@H](NC(=O)[C@H](Cc1ccccc1)NC(=O)OCc1ccccc1)C(=O)N[C@@H](CCC(=O)O)C(=O)CCl [Z-Phe Leu Glu CH2 Cl] (Cbz-Phe-Leu-Glu-CH2Cl) | completely inhibited | – | – | –
V8 protease: Serine protease from the V8 strain of Staphylococcus aureus, cleaves at the carboxyl terminal of glutamic acid residues | – | – | – | the peptide bonds at the carboxyl termini of the glutamic acid residues were cleaved
